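Results reflect a 48-hour exposure of cells in 96-well plates to compound at five concentrations. TGI: concentration producing complete growth inhibition.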
Tests used:
Assay in all cases: NCI tumour cell line growth inhibition, 48 h
[1] = tested on: IGROV1 ovarian
[2] = tested on: HT29 colon
[3] = tested on: RXF 393 renal
[4] = tested on: DU-145 prostate
[5] = tested on: SK-OV-3 ovarian
[6] = tested on: SNB-75 CNS
[7] = tested on: NCI-H226 lung
[8] = tested on: M14 melanoma
[9] = tested on: RPMI-8226 leukemia
[10] = tested on: BT-549 breast
[11] = tested on: SF-268 CNS
[12] = tested on: SK-MEL-5 melanoma
[13] = tested on: PC-3 prostate
[14] = tested on: NCI-H522 lung
[15] = tested on: HL-60(TB) leukemia
[16] = tested on: CCRF-CEM leukemia
[17] = tested on: HOP-92 NSCLC
[18] = tested on: A498 renal
[19] = tested on: SN12C renal
[20] = tested on: MOLT-4 leukemia
[21] = tested on: SF-539 CNS
[22] = tested on: 786-0 renal
[23] = tested on: SK-MEL-2 melanoma
[24] = tested on: NCI-H23 lung
[25] = tested on: HOP-62 NSCLC
[26] = tested on: A549 NSCLC
[27] = tested on: UACC-257 melanoma
[28] = tested on: LOX IMVI melanoma
[29] = tested on: T-47D breast
[30] = tested on: EKVX NSCLC
[31] = tested on: SW-620 colon
[32] = tested on: MDA-N
[33] = tested on: MDA-MB-435
[34] = tested on: HCT-15 colon
[35] = tested on: SK-MEL-28 melanoma
[36] = tested on: NCI/ADR-RES ovarian
[37] = tested on: HCT-116 colon
[38] = tested on: SNB-19 CNS
[39] = tested on: SR leukemia
[40] = tested on: MCF7 breast
[41] = tested on: NCI-H460 lung
[42] = tested on: UO-31 renal
[43] = tested on: HS 578T breast
[44] = tested on: U251 CNS
[45] = tested on: UACC-62 melanoma
[46] = tested on: SF-295 CNS
[47] = tested on: COLO 205 colon
[48] = tested on: KM12 colon
[49] = tested on: MDA-MB-231 breast
[50] = tested on: OVCAR-3 ovarian
[51] = tested on: TK-10 renal
[52] = tested on: HCC-2998 colon
[53] = tested on: K-562 leukemia
[54] = tested on: OVCAR-5 ovarian
[55] = tested on: ACHN renal
[56] = tested on: CAKI-1 renal
[57] = tested on: OVCAR-4 ovarian
[58] = tested on: MALME-3M melanoma
[59] = tested on: OVCAR-8 ovarian

`O=C(CCc1ccc(O)c(O)c1)NCCc1cc(O)cc(OCc2ccccc2)c1` was tested, and the TGI [1] was greater than 100 µM, the TGI [2] was greater than 100 µM and the TGI [3] was greater than 100 µM. It also gave a TGI [4] greater than 100 µM, a TGI [5] greater than 100 µM and a TGI [6] greater than 100 µM. The TGI [7] was greater than 100 µM, the TGI [8] was greater than 100 µM and the TGI [9] was greater than 100 µM. It also gave a TGI [10] of 86 µM, a TGI [11] greater than 100 µM and a TGI [12] of 32.2 µM. The TGI [13] was greater than 100 µM, the TGI [14] was greater than 100 µM and the TGI [15] was 38.2 µM. For the same molecule, the TGI [16] was 75.9 µM, the TGI [17] was greater than 100 µM and the TGI [18] was greater than 100 µM. It also gave a TGI [19] greater than 100 µM, a TGI [20] greater than 100 µM and a TGI [21] greater than 100 µM. It also gave a TGI [22] greater than 100 µM, a TGI [23] greater than 100 µM and a TGI [24] of 80 µM. It also gave a TGI [25] greater than 100 µM, a TGI [26] greater than 100 µM and a TGI [27] greater than 100 µM. For the same molecule, the TGI [28] was greater than 100 µM, the TGI [29] was greater than 100 µM and the TGI [30] was greater than 100 µM. The TGI [31] was greater than 100 µM, the TGI [32] was 58.7 µM and the TGI [33] was greater than 100 µM. For the same molecule, the TGI [34] was 58.4 µM, the TGI [35] was greater than 100 µM and the TGI [36] was greater than 100 µM. It also gave a TGI [37] greater than 100 µM, a TGI [38] of 36.7 µM and a TGI [39] of 83.4 µM. It also gave a TGI [40] greater than 100 µM, a TGI [41] of 51.7 µM and a TGI [42] of 71 µM. For the same molecule, the TGI [43] was greater than 100 µM, the TGI [44] was greater than 100 µM and the TGI [45] was greater than 100 µM. The TGI [46] was greater than 100 µM, the TGI [47] was greater than 100 µM and the TGI [48] was greater than 100 µM. It also gave a TGI [49] greater than 100 µM, a TGI [50] greater than 100 µM and a TGI [51] greater than 100 µM. For the same molecule, the TGI [52] was 40.7 µM, the TGI [53] was greater than 100 µM and the TGI [54] was greater than 100 µM. The TGI [55] was 46.9 µM and the TGI [56] was greater than 100 µM.
`O=C1CC2(CCC(O)(c3ccccc3)C(C(=O)c3ccccc3)C2)C(=O)c2ccccc2N1` (stereo unspecified) gave a TGI [1] greater than 100 µM, a TGI [2] greater than 100 µM and a TGI [3] greater than 100 µM. For the same molecule, the TGI [4] was greater than 100 µM, the TGI [5] was greater than 100 µM and the TGI [6] was greater than 100 µM. It also gave a TGI [7] greater than 100 µM, a TGI [8] greater than 100 µM and a TGI [10] greater than 100 µM. For the same molecule, the TGI [11] was greater than 100 µM, the TGI [12] was greater than 100 µM and the TGI [13] was greater than 100 µM. It also gave a TGI [15] greater than 100 µM, a TGI [57] greater than 100 µM and a TGI [16] greater than 100 µM. It also gave a TGI [17] greater than 100 µM, a TGI [18] greater than 100 µM and a TGI [19] greater than 100 µM. It also gave a TGI [20] greater than 100 µM, a TGI [21] greater than 100 µM and a TGI [23] greater than 100 µM. The TGI [24] was greater than 100 µM, the TGI [25] was greater than 100 µM and the TGI [26] was greater than 100 µM. It also gave a TGI [27] greater than 100 µM, a TGI [28] greater than 100 µM and a TGI [29] greater than 100 µM. The TGI [30] was greater than 100 µM, the TGI [31] was greater than 100 µM and the TGI [32] was greater than 100 µM. The TGI [33] was greater than 100 µM, the TGI [34] was greater than 100 µM and the TGI [35] was greater than 100 µM. The TGI [36] was greater than 100 µM, the TGI [37] was greater than 100 µM and the TGI [38] was greater than 100 µM. The TGI [39] was greater than 100 µM, the TGI [58] was greater than 100 µM and the TGI [40] was greater than 100 µM. For the same molecule, the TGI [41] was greater than 100 µM, the TGI [42] was greater than 100 µM and the TGI [43] was greater than 100 µM. The TGI [59] was greater than 100 µM, the TGI [44] was greater than 100 µM and the TGI [45] was greater than 100 µM. It also gave a TGI [46] greater than 100 µM, a TGI [47] greater than 100 µM and a TGI [49] greater than 100 µM. The TGI [50] was greater than 100 µM, the TGI [51] was greater than 100 µM and the TGI [52] was greater than 100 µM. It also gave a TGI [53] greater than 100 µM, a TGI [54] greater than 100 µM and a TGI [56] greater than 100 µM.
With `O=C(Nc1ccccc1)c1cc(S(=O)(=O)n2cc[nH]c2=O)c(S)cc1Cl` the TGI [1] was greater than 100 µM, the TGI [2] was greater than 100 µM and the TGI [3] was greater than 100 µM. The TGI [4] was greater than 100 µM, the TGI [6] was 97.5 µM and the TGI [7] was greater than 100 µM. The TGI [8] was greater than 100 µM, the TGI [9] was greater than 100 µM and the TGI [10] was greater than 100 µM. The TGI [11] was greater than 100 µM, the TGI [12] was greater than 100 µM and the TGI [13] was greater than 100 µM. It also gave a TGI [14] greater than 100 µM, a TGI [15] greater than 100 µM and a TGI [16] greater than 100 µM. The TGI [17] was greater than 100 µM, the TGI [18] was greater than 100 µM and the TGI [19] was greater than 100 µM. The TGI [20] was greater than 100 µM, the TGI [21] was greater than 100 µM and the TGI [22] was greater than 100 µM. It also gave a TGI [23] greater than 100 µM, a TGI [24] greater than 100 µM and a TGI [25] greater than 100 µM. For the same molecule, the TGI [26] was greater than 100 µM, the TGI [27] was greater than 100 µM and the TGI [28] was greater than 100 µM. The TGI [29] was greater than 100 µM, the TGI [30] was greater than 100 µM and the TGI [31] was greater than 100 µM. It also gave a TGI [32] greater than 100 µM, a TGI [33] greater than 100 µM and a TGI [34] greater than 100 µM. The TGI [35] was greater than 100 µM, the TGI [36] was greater than 100 µM and the TGI [37] was greater than 100 µM. It also gave a TGI [38] greater than 100 µM, a TGI [39] greater than 100 µM and a TGI [40] greater than 100 µM. It also gave a TGI [41] greater than 100 µM, a TGI [42] greater than 100 µM and a TGI [43] greater than 100 µM. The TGI [59] was greater than 100 µM, the TGI [44] was greater than 100 µM and the TGI [45] was greater than 100 µM. It also gave a TGI [46] greater than 100 µM, a TGI [47] greater than 100 µM and a TGI [48] greater than 100 µM. It also gave a TGI [49] greater than 100 µM, a TGI [50] greater than 100 µM and a TGI [51] greater than 100 µM. For the same molecule, the TGI [52] was greater than 100 µM, the TGI [53] was greater than 100 µM and the TGI [54] was greater than 100 µM. It also gave a TGI [55] greater than 100 µM and a TGI [56] greater than 100 µM.

Reference: PubChem BioAssay (NCI)
